# Source: patent publication US10953115B2, “Production of sterile active pharmaceutical ingredients” (Icrom S.R.L., priority 2012, dated 2021)
# How the values were obtained:
# [1] = stated as reason why sterile filtration is not achievable; cited from earlier work
# [2] = Appearance and related substances (USP Brinzolamide monograph) after gamma-ray sterilisation; type: physicochemical
# Experimental: All the analysis were performed according to USP Brinzolamide monograph, sterility and bioburden test were performed according to Eur. Ph. and USP.
# Two related substances (impurities) are described in the USP monograph: Impurity A and Impurity B.
# The material was tested according to USP, details about appearance of the powder, related substances and sterility were given in Table 1.
# The material was tested according to USP, details about appearance of the powder, related substances and sterility were given in Table 2.
# The material was tested according to USP, details about appearance of the powder, related substances and sterility were given in Table 3.
# The material was tested according to USP, details about appearance of the powder, related substances and sterility were given in Table 4.
# The material was tested according to USP, details about appearance of the powder, related substances and sterility were given in Table 5.
# [3] = micronised, LDPE liner in double barrier foil (no vacuum), 25 KGy, RT
# [4] = micronised, packed under vacuum, 25 KGy, RT
# [5] = micronised, under vacuum and helium, 25 KGy, −78° C.
# [6] = micronised, under vacuum and nitrogen, 25 KGy, −78° C.
# [7] = not-micronized, LDPE liner in barrier foil, 10 KGy, RT
# [8] = not-micronized, LDPE liner in barrier foil, 15 KGy, RT
# [9] = not-micronized, LDPE liner in barrier foil, 20 KGy, RT
# [10] = not-micronized, LDPE liner in barrier foil, 25 KGy, RT
smiles,measurement,setting,value
CCN[C@H]1CN(CCCOC)S(=O)(=O)c2sc(S(N)(=O)=O)cc21 [Brinzolamide],Solubility,[1],poor solubility
same,Compliance with USP specifications,"[2]; Example 1: not-micronized, 10, 15, 20 and 25 KGy, RT",complies with the USP specifications apart the appearance of the powder in the 20 and 25 KGy trials
same,Compliance with USP specification,"[2]; Example 2: micronised, no vacuum, 25 KGy, RT",does not complies with USP specification
same,Compliance with USP specification,"[2]; Example 3: micronised, under vacuum, 25 KGy, RT",complies with USP specification
same,Compliance with USP specification,"[2]; Example 4: micronised, under vacuum and nitrogen, 25 KGy, −78° C.",complies with USP specification
same,Compliance with USP specification,"[2]; Example 5: micronised, under vacuum and helium, 25 KGy, −78° C.",complies with USP specification
same,Appearance,[2]; [3],Almost White powder
same,Impurity A,[2]; [3],Not detected
same,Impurity B,[2]; [3],0.29%
same,Impurity C,[2]; [3],<0.05%
same,Impurity D,[2]; [3],0.62%
same,Total Impurities,[2]; [3],1.4%
same,Appearance,[2]; [4],White powder
same,Impurity A,[2]; [4],Not detected
same,Impurity B,[2]; [4],0.09%
same,Impurity C,[2]; [4],<0.05%
same,Impurity D,[2]; [4],0.30%
same,Total Impurities,[2]; [4],0.6%
same,Appearance,[2]; [5],White powder
same,Impurity A,[2]; [5],Not detected
same,Impurity B,[2]; [5],0.06%
same,Impurity C,[2]; [5],<0.05%
same,Impurity D,[2]; [5],0.11%
same,Total Impurities,[2]; [5],0.2%
same,Appearance,[2]; [6],White powder
same,Impurity A,[2]; [6],Not detected
same,Impurity B,[2]; [6],0.08%
same,Impurity C,[2]; [6],<0.05%
same,Impurity D,[2]; [6],0.16%
same,Total Impurities,[2]; [6],0.3%
same,Appearance,[2]; [7],White powder
same,Impurity A,[2]; [7],Not detected
same,Impurity B,[2]; [7],0.06%
same,Impurity C,[2]; [7],<0.05%
same,Impurity D,[2]; [7],0.11%
same,Total Impurities,[2]; [7],0.2%
same,Appearance,[2]; [8],White powder
same,Impurity A,[2]; [8],Not detected
same,Impurity B,[2]; [8],0.07%
same,Impurity C,[2]; [8],<0.05%
same,Impurity D,[2]; [8],0.14%
same,Total Impurities,[2]; [8],0.2%
same,Appearance,[2]; [9],Greenish powder
same,Impurity A,[2]; [9],Not detected
same,Impurity B,[2]; [9],0.10%
same,Impurity C,[2]; [9],<0.05%
same,Impurity D,[2]; [9],0.19%
same,Total Impurities,[2]; [9],0.3%
same,Appearance,[2]; [10],Greenish powder
same,Impurity A,[2]; [10],Not detected
same,Impurity B,[2]; [10],0.10%
same,Impurity C,[2]; [10],<0.05%
same,Impurity D,[2]; [10],0.21%
same,Total Impurities,[2]; [10],0.4%
